Results on 36 molecules are retold here after patent US12565489B2, “Heterocyclyl pyrimidines and triazines as novel fungicides” (Bayer Aktiengesellschaft, priority 2020, dated 2026).

A short description of one data set: Measurement of Log P values by HPLC on reversed phase columns (EEC directive 79/831 Annex V.A8). Type of data set: physicochemical. The settings on record: LogP. The method, then: Measurement of Log P values as provided herein was performed according to EEC directive 79/831 Annex V.A8 by HPLC (High Performance Liquid Chromatography) on reversed phase columns with the following methods: • ^[a] Log P value is determined by measurement of LC-UV, in an acidic range, with 0.1% formic acid in water and acetonitrile as eluent (linear gradient from 10% acetonitrile to 95% acetonitrile). • ^[b] Log P value is determined by measurement of LC-UV, in a neutral range, with 0.001 molar ammonium acetate solution in water and acetonitrile as eluent (linear gradient from 10% acetonitrile to 95% acetonitrile). • ^[c] Log P value is determined by measurement of LC-UV, in an acidic range, with 0.1% phosphoric acid and acetonitrile as eluent (linear gradient from 10% acetonitrile to 95% acetonitrile).
If more than one Log P value is available within the same method, all the values are given and separated by “+”.
Calibration was done with straight-chain alkan2-ones (with 3 to 16 carbon atoms) with known Log P values (measurement of Log P values using retention times with linear interpolation between successive alkanones). Lambda-max-values were determined using UV-spectra from 200 nm to 400 nm and the peak values of the chromatographic signals
As for `Cc1ccc(C[C@H](CCl)NC(=O)c2nc(C)ncc2Oc2cccc(Cl)c2F)c(Cl)c1` (racemic) [Compound 10-05], the chromatographic logP stood at 4.7. The molecule `C#Cc1cccc(Oc2cnc(C)nc2C(=O)O)c1` [Compound 1-05] displayed a chromatographic logP of 1.77. The same measure, in the same setting: the result for `Cc1ncc(Oc2cccc(Cl)c2)c(C2=NOC(C)(C)[C@@H](c3ccc(F)cc3F)N2)n1` (racemic) [Compound I-035] reads 3.84; that for `Cc1ncc(Oc2cccc(C(F)(F)F)c2)c(C(=O)N[C@@H](CCl)Cc2csc(C(F)(F)F)c2)n1` (racemic) [Compound 10-07], 4.55; that for `COc1ccc(C[C@H](CCl)NC(=NO)c2nc(C)ncc2Oc2cccc(C(F)(F)F)c2)c(Cl)c1` (racemic) [Compound 11-01], 4.01. Still for that read-out and setting: the result for `C#Cc1cccc(Oc2cnc(C)nc2C(=O)N[C@@H](CON)Cc2ccc(C)cc2C)c1` (racemic) [Compound 4-02] reads 2.53. `CSc1ncc(Br)c(C2=NOC[C@@H](Cc3ccc(C)cc3Cl)N2)n1` (racemic) [Compound 7-03] displayed a chromatographic logP of 4.08. Same read-out and setting: the figure for `Cc1ncc(Oc2cccc(C(F)(F)F)c2)c(C(=NO)N[C@@H](CCl)Cc2ccc(SC(F)(F)F)cc2)n1` (racemic) [Compound 11-10] is 4.66; for `Cc1ccc(C[C@H](N)CC(N)=O)c(C)c1` (racemic) [Compound 9-04] it is 0.69.

For the molecule `COC(=N)c1nc(C)ncc1Oc1cccc(Cl)c1` [Compound 20-01, methyl 5-(3-chlorophenoxy)-2-methyl-pyrimidine-4-carboximidate], the chromatographic logP came out at 2.19. Still for that read-out and setting: the figure for `Cc1ncc(Oc2cccc(Cl)c2)c(C#N)n1` [Compound 16-01] is 3.07; for `Cc1ncc(Oc2cccc(C(F)(F)F)c2)c(C(=O)N[C@@H](CCl)Cc2ccc(SC(F)(F)F)cc2)n1` (racemic) [Compound 10-09] it is 4.92; for `Cc1ccc(C[C@H](CCl)NC(=NO)c2nc(C)ncc2Oc2cccc(C(F)(F)F)c2)c(Cl)c1` (racemic) [Compound 11-02] it is 4.31. The same measure, in the same setting: the result for `CSc1ncc(Br)c(C(=O)N[C@@H](CON2C(=O)c3ccccc3C2=O)Cc2ccc(C)cc2C)n1` (racemic) [Compound 6a-01] reads 4.55; that for `CSc1ncc(Br)c(C(=O)N[C@@H](CON)Cc2ccc(C)cc2Cl)n1` (racemic) [Compound 4-03], 2.58. Take `Cc1ccc(CC(CON)NC(=O)c2nc(C3CC3)ncc2Oc2cccc(C(F)(F)F)c2)c(C)c1` (racemic) [Compound 4-01, N-[(2RS)-1-(aminooxy)-3-(2,4-dimethylphenyl)propan-2-yl]-2-cyclopropyl-5-[3-(trifluoromethyl)phenoxy]pyrimidine-4-carboxamide]: the chromatographic logP is 3.7. Still for that read-out and setting: the figure for `Cc1ncc(Oc2cccc(C(F)(F)F)c2)c(C(=O)N[C@@H](CCl)Cc2ccc(Br)cc2C)n1` (racemic) [Compound 10-06] is 4.86; for `Cc1ccc([C@H](N)CC(N)=O)c(C)c1` (racemic) [Compound 9-05] it is 0.55; for `Cc1ncc(Oc2cccc(C(F)(F)F)c2)c(C(=NO)N[C@@H](CCl)Cc2ccc(C(F)F)cc2Cl)n1` (racemic) [Compound 11-11] it is 4.02. Molecule `Cc1ncc(Oc2cccc(C(F)(F)F)c2)c(C(=NO)N[C@@H](CCl)Cc2csc(C(F)(F)F)c2)n1` (racemic) [Compound 11-08] had a chromatographic logP of 4.12. Same read-out and setting: the result for `Cc1ncc(Oc2cccc(Br)c2)c(C(=O)O)n1` [Compound 1-04] reads 2.15.

The molecule `Cc1ccc(CC2CCN=C(c3nc(C)ncc3Oc3cccc(Cl)c3)N2)c(C)c1` (racemic) [Compound I-022, 5-(3-chlorophenoxy)-2-methyl-4-[(6RS)-6-[(2,4-dimethylphenyl)methyl]-1,4,5,6-tetrahydropyrimidin-2-yl]pyrimidine] registered a chromatographic logP of 2.59. Molecule `Cc1ccc(C[C@H](CCl)NC(=NO)c2nc(C)ncc2Oc2cccc(Cl)c2F)c(Cl)c1` (racemic) [Compound 11-06] yielded a chromatographic logP of 4.16. Same read-out and setting: the result for `CSc1ncc(Br)c(C(=O)N[C@@H](CON2C(=O)c3ccccc3C2=O)Cc2ccc(C)cc2Cl)n1` (racemic) [Compound 3-03] reads 4.62. The same measure, in the same setting: the result for `CSc1ncc(Br)c(C(=O)N[C@@H](CON)Cc2ccc(C)cc2C)n1` (racemic) [Compound 6b-01] reads 2.49; that for `Cc1ccc(C[C@H](CCl)NC(=O)c2nc(C)ncc2Oc2cccc(C3CC3)c2F)c(C)c1` (racemic) [Compound 10-11], 4.86; that for `Cc1ncc(Oc2cccc(Cl)c2)c(C(N)=NOCC(=O)c2ccc3c(c2)OCCO3)n1` [Compound 19-02], 3.12. On the same count and under the same terms, the figure for `Cc1ncc(Oc2cccc(Cl)c2)c(C(N)=NOCC(=O)c2ccc3c(c2)CCC3)n1` [Compound 19-01] is 4.15; for `Cc1ccc(C[C@H](CCl)NC(=NO)c2nc(C)ncc2Oc2cccc(C3CC3)c2F)c(Cl)c1` (racemic) [Compound 11-03] it is 4.62. Molecule `Cc1ccc(CC2CON=C(c3nc(C)ncc3Br)N2)c(C)c1` (racemic) [Compound 7-01, (5RS)-3-(5-bromo-2-methylpyrimidin-4-yl)-5-(2,4-dimethylbenzyl)-5,6-dihydro-4H-1,2,4-oxadiazine] registered a chromatographic logP of 3.05. Same read-out and setting: the figure for `C=Cc1cccc(Oc2cnc(C)nc2C(=O)O)c1` [Compound 1-06] is 1.87. Still for that read-out and setting: the result for `Cc1ncc(Oc2cccc(C3CC3)c2F)c(C(=O)O)n1` [Compound 1-07] reads 2.2; that for `Cc1ccc(CC(CCl)NC(=O)c2nc(C)ncc2Br)c(C)c1` (racemic) [Compound 12-01, 5-bromo-N-[(2RS)-1-chloro-3-(2,4-dimethylphenyl)propan-2-yl]-2-methyl-pyrimidine-4-carboxamide], 3.66. The same measure, in the same setting: the result for `Cc1ncc(Oc2cccc(C(F)(F)F)c2)c(C(=NO)N[C@@H](CCl)Cc2ccc(OC(F)F)cc2Cl)n1` (racemic) [Compound 11-09] reads 4.08. `Cc1ncc(Oc2cccc(Cl)c2)c(C(=O)O)n1` [Compound 1-03] returned a chromatographic logP of 2.

Still in this data set, the particulars now being: method [a]: LC-UV, acidic range, 0.1% formic acid in water and acetonitrile as eluent; read-out: LogP.
In the case of `Cc1ncc(Oc2cccc(C(F)(F)F)c2)c(C2=NOCC(Cc3ccc(C#C[Si](C)(C)C)cc3C)N2)n1` (racemic) [Compound I-010, trimethyl-[2-[3-methyl-4-[[(5RS)-3-[2-methyl-5-[3-(trifluoro-methyl)phenoxy]pyrimidin-4-yl]-5,6-dihydro-4H-1,2,4-oxadiazin-5-yl]methyl]phenyl]ethynyl]silane], the chromatographic logP is 5.79.
